Measurements taken from patent publication US7745463B2, “Alkene piperidine derivatives as antiviral agents” (priority 2006, dated 2010).
pEC50: −log10 of the molar value.

System: HIV-1 single-round infectious reporter virus
Test: Single-round infectious HIV-1 reporter virus (luciferase) infection of HeLa CD4 cells
Format: cell-based
Conditions: Human immunodeficiency virus 1, HeLa, 72 h, read-out: EC50 Group from Table 1
Procedure: • Virus production—Human embryonic Kidney cell line, 293T, was propagated in Dulbecco's Modified Eagle Medium (Invitrogen, Carlsbad, Calif.) containing 10% fetal Bovine serum (FBS, Sigma, St. Louis, Mo.). • Virus infection-Human epithelial cell line, HeLa, expressing the HIV-1 receptor CD4 was propagated in Dulbecco's Modified Eagle Medium (Invitrogen, Carlsbad, Calif.) containing 10% fetal Bovine serum (FBS, Sigma, St. Louis, Mo.) and supplemented with 0.2 mg/mL Geneticin (Invitrogen, Carlsbad, Calif.). • Virus-Single-round infectious reporter virus was produced by co-transfecting human embryonic Kidney 293 cells with an HIV-1 envelope DNA expression vector and a proviral cDNA containing an envelope deletion mutation and the luciferase reporter gene inserted in place of HIV-1 nef sequences (Chen et al, Ref. 41). Transfections were performed using lipofectAMINE PLUS reagent as described by the manufacturer (Invitrogen, Carlsbad, Calif.). Experiment: • HeLa CD4 cells were plated in 96 well plates at a cell density of 1×10^4 cells per well in 100 μl Dulbecco's Modified Eagle Medium containing 10% fetal Bovine serum and incubated overnight. • Compound was added in a 2 μl dimethylsulfoxide solution, so that the final assay concentration would be ≦10 μM. • 100 μl of single-round infectious reporter virus in Dulbecco's Modified Eagle Medium was then added to the plated cells and compound at an approximate multiplicity of infection (MOI) of 0.01, resulting in a final volume of 200 μl per well. • Virally-infected cells were incubated at 37 degrees Celsius, in a CO2 incubator, and harvested 72 h after infection. • Viral infection was monitored by measuring luciferase expression from viral DNA in the infected cells using a luciferase reporter gene assay kit, as described by the manufacturer (Roche Molecular Biochemicals, Indianapolis, Ind.). Infected cell supernatants were removed and 50 μl of lysis buffer was added per well. After 15 minutes, 50 μl of freshly-reconstituted luciferase assay reagent was added per well. Luciferase activity was then quantified by measuring luminescence using a Wallac microbeta scintillation counter. • The percent inhibition for each compound was calculated by quantifying the level of luciferase expression in cells infected in the presence of each compound as a percentage of that observed for cells infected in the absence of compound and subtracting such a determined value from 100. • An EC50 provides a method for comparing the antiviral potency of the compounds of this disclosure. The effective concentration for fifty percent inhibition (EC50) was calculated with the Microsoft Excel Xlfit curve fitting software. For each compound, curves were generated from percent inhibition calculated at 10 different concentrations by using a four paramenter logistic model (model 205). Table 1 is the key for the data in Table 2.

## CC(Oc1cccc2ncccc12)C(=O)N1CCC(=C(C#N)c2ccccc2)CC1 (centres unmarked)
  pEC50: > 6.00

## CC(Oc1cccc2ncccc12)C(=O)N1CCC(=C(C#N)c2ccccc2)CC1C (centres unmarked)
  pEC50: > 6.00

## CC(Oc1cccc2ncccc12)C(=O)N1CCC(=C(c2ccccc2)c2ccccc2)CC1 (centres unmarked)
  pEC50: < 6.00

## CC(Oc1cccc2ncccc12)C(=O)N1CCC(=C(c2ccccc2)c2cccnc2)CC1 (centres unmarked)
  pEC50: < 6.00

## Cc1nnc(C(=C2CCN(C(=O)C(C)Oc3cccc4ncccc34)CC2)c2ccccc2)o1 (centres unmarked)
  pEC50: < 6.00

## COC(=O)c1ccc(OC(C)C(=O)N2CCC(=C(C#N)c3ccccc3)CC2)c(OC)c1 (centres unmarked)
  pEC50: > 6.00

## COC(=O)c1ccc(OC(C)C(=O)N2CCC(=C(C#N)c3ccccc3)CC2C)c(OC)c1 (centres unmarked)
  pEC50: > 6.00

## COC(=O)c1ccc(OC(C)C(=O)N2CCC(=C(c3ccccc3)c3ccccc3)CC2)c(OC)c1 (centres unmarked)
  pEC50: > 6.00

## COC(=O)c1ccc(OC(C)C(=O)N2CCC(=C(c3ccccc3)c3cccnc3)CC2)c(OC)c1 (centres unmarked)
  pEC50: < 6.00

## COC(=O)c1ccc(OC(C)C(=O)N2CCC(=C(c3ccccc3)c3nnc(C)o3)CC2)c(OC)c1 (centres unmarked)
  pEC50: > 6.00

## CC(Oc1cccc2cccnc12)C(=O)N1CCC(=C(C#N)c2ccccc2)CC1 (centres unmarked)
  pEC50: > 6.00
